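Values below derive from 48-hour exposures of cells grown in 96-well plates, with endpoints linearly interpolated between the two concentrations bracketing the appropriate inhibition level. The concentration for 50% growth inhibition is given as GI50.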 Active and inactive are the calls of the source. No stated cut-off is given here; in the data, active = GI50 up to about 1.1 µM and inactive = higher.
Experiments:
Experiment in all cases: NCI tumour cell line growth inhibition, 48 h
[1] = tested on: SW-620
[2] = tested on: A498
[3] = tested on: CCRF-CEM
[4] = tested on: IGROV-1
[5] = tested on: HOP-62
[6] = tested on: DMS-114
[7] = tested on: UACC-62
[8] = tested on: LOX IMVI
[9] = tested on: Malme-3M
[10] = tested on: RPMI-8226
[11] = tested on: NCI-H460
[12] = tested on: EKVX
[13] = tested on: COLO 205
[14] = tested on: XF498
[15] = tested on: OVCAR-8
[16] = tested on: HCT-116
[17] = tested on: UO-31
[18] = tested on: SK-OV-3
[19] = tested on: HOP-18
[20] = tested on: HL-60
[21] = tested on: U-251
[22] = tested on: SK-MEL-2
[23] = tested on: HT-29
[24] = tested on: SK-MEL-5
[25] = tested on: SNB-78
[26] = tested on: KM12
[27] = tested on: RXF 631
[28] = tested on: KM-20L2
[29] = tested on: RXF 393
[30] = tested on: SNB-75
[31] = tested on: K562
[32] = tested on: SK-MEL-28
[33] = tested on: HCT-15
[34] = tested on: M19-MEL
[35] = tested on: DMS-273
[36] = tested on: M14
[37] = tested on: OVCAR-5
[38] = tested on: SN12C
[39] = tested on: NCI-H226
[40] = tested on: NCI-H522
[41] = tested on: OVCAR-4
[42] = tested on: DLD-1
[43] = tested on: SF-539
[44] = tested on: SF-295
[45] = tested on: LXFL 529
[46] = tested on: ACHN
[47] = tested on: 786-0
[48] = tested on: A549
[49] = tested on: TK-10
[50] = tested on: OVCAR-3
[51] = tested on: SF-268
[52] = tested on: UACC-257
[53] = tested on: CAKI-1
[54] = tested on: HOP-92

Measured: GI50

CN(C)/C=N\c1cc[nH]c(=O)n1
> 100 µM: [33]
inactive: [1] > 100 µM | [2] > 100 µM | [3] > 100 µM | [4] > 100 µM | [5] > 100 µM | [6] > 100 µM | [7] > 100 µM | [8] > 100 µM | [9] > 100 µM | [10] > 100 µM | [11] > 100 µM | [12] > 100 µM | [13] > 100 µM | [14] > 100 µM | [15] > 100 µM | [16] > 100 µM | [17] > 100 µM | [18] > 100 µM | [19] > 100 µM | [20] > 100 µM | [21] > 100 µM | [22] > 100 µM | [23] > 100 µM | [24] > 100 µM | [25] > 100 µM | [26] > 100 µM | [27] > 100 µM | [28] > 100 µM | [29] > 100 µM | [30] > 100 µM | [31] > 100 µM | [32] > 100 µM | [34] > 100 µM | [35] > 100 µM | [36] > 100 µM | [37] > 100 µM | [38] > 100 µM | [39] > 100 µM | [40] > 100 µM | [41] > 100 µM | [42] > 100 µM | [43] > 100 µM | [44] > 100 µM | [45] > 100 µM | [46] > 100 µM | [47] > 100 µM | [48] > 100 µM | [49] > 100 µM | [50] > 100 µM | [51] > 100 µM | [52] > 100 µM | [53] > 100 µM | [54] > 100 µM

From ChEMBL document CHEMBL1201862, “PubChem BioAssay data set” (2004)
